This note sets out measurements from US11844823B2, “Beta-hairpin peptidomimetic with elastase inhibitory activity and aerosol dosage forms thereof” (POLYPHOR AG, priority 2016, dated 2023).

Non-standard residues stand in square brackets, D forms with d. Residues, ends and D or L forms follow the SMILES beside them. Gly(octyl) = CCCCCCCC[C@H](N)C(=O)O

In data set [1] the test system is patients with cystic fibrosis. Kind of data set: Phase-1b single ascending dose study in patients with cystic fibrosis, safety and tolerability. Format: in vivo, human. An excerpt: In this randomised, double-blind, placebo-controlled, parallel-group (per dose level) dose-escalation study, the safety and tolerability of single ascending doses (SAD) of acetate salt of cyclo(-OctG-Glu-Thr-Ala-Ser-Ile-Pro-Pro-Gln-Lys-Tyr-^DPro-Pro-) administered by inhalation in patients with cystic fibrosis (CF) was investigated. Additionally, the pharmacokinetics of the drug following a single ascending dose in plasma and sputum as well as its pharmacodynamic effect on neutrophil elastase activity in sputum were evaluated.
In this study, conducted by Inamed GmbH, Gauting, Germany, 24 subjects with cystic fibrosis, who fulfilled all the inclusion criteria and in whom no exclusion criterion was present, were included and received randomised treatment. They were grouped into 3 dose groups of 8 subjects each. 6 subjects received the formulation described in Example 1 and dilutions thereof and 2 subjects received placebo (0.5% [w/w] aqueous sodium chloride solution adjusted to pH 5.5 with 1 M HCl pharmaceutical grade). The oral inhalation of the above formulation as well as the placebo occurred via the Pari eFlow® XL 30 nebulizer device (Pari Pharma GmbH, Starnberg, Germany). The dose levels and corresponding concentrations of cyclo(-OctG-Glu-Thr-Ala-Ser-Ile-Pro-Pro-Gln-Lys-Tyr-^DPro-Pro-) (active compound) are summarized in Table 14.
The volume of placebo nebulizer solution corresponded to that of the active compound at a particular dose level. The duration of inhalation was estimated to be between 7 and 20 min. Adverse events were tabulated and summarized according to the current version of Medical Dictionary for Regulatory Activities.

Data set [2] concerns neutrophil elastase. Kind of data set: LPS/fMLP model of neutrophil activation in the rat, inhalation; neutrophil elastase activity in BAL supernatant. The following applies: for NE activity in BAL fluid: mean ± s.e.m., vehicle 0.25 ± 0.02, p < 0.0001. Type of data set: in vivo. The procedure:
The purpose of this study (conducted by Envigo CRS Limited, Alconbury, Huntingdon, United Kingdom) was to evaluate the effects of acetate salt of cyclo(-OctG-Glu-Thr-Ala-Ser-Ile-Pro-Pro-Gln-Lys-Tyr-^DPro-Pro-) administered by inhalation in a LPS/fMLP model of neutrophil activation in the rat.
Animals were challenged with aerosolized LPS (lipopolysaccharide, 1 mg/mL) for 30 min. Approximately 3 h following end of LPS challenge, animals were administered either vehicle or formulations as described above of acetate salt of cyclo(-OctG-Glu-Thr-Ala-Ser-Ile-Pro-Pro-Gln-Lys-Tyr-^DPro-Pro-) by inhalation (Groups 1-4) over a 30 min period using an eFlow® 30 XL electronic nebulizer (Pari Pharma GmbH, Starnberg, Germany; snout only exposure). All animals were dosed with fMLP (N-formyl-Met-Leu-Phe, 5 mg/kg) approximately 4 h post completion of the LPS challenge via the intratracheal route under transient gaseous anaesthesia at a dose volume of 1 mL/kg. Approximately 2 h after fMLP administration, animals were terminated and a bronchoalveolar lavage (BAL) was performed to evaluate inflammatory cell infiltrate and neutrophil elastase activity.
Following confirmation of death, the trachea of an animal was isolated, the tracheal cannula inserted and secured in place, and the airway was lavaged with 3 mL of phosphate buffered saline (PBS). The lavage was repeated twice and in total, three lots of 3 mL of PBS were used. The first lavage aliquot containing cells was placed into a 15 mL centrifuge tube on wet ice (Tube A). The BAL fluid pooled from the second two lavages was placed into a second tube (Tube B). Tube A and B were placed on wet ice until centrifuged. Centrifugation was performed at 800×g for 10 min at ca. 4° C. and the supernantant was harvested. Until neutrophil elastase analysis supernantant was stored at ca. […].
The two aliquots of BAL supernatant were analyzed for neutrophil elastase activity as follows: 120 μl of BAL supernatant from aliquot 1 was transferred to a 96 well plate (Corning #3650). In parallel, a dilution range from 1.6 to 0.025 mU/well of a commercial human neutrophil elastase (hNE, Serva #20927.01) was prepared. 120 μl of each hNE dilution were transferred in duplicate to the 96-well plate. To start the enzymatic reaction, 80 μl of a fluorescent peptide substrate (MeOSuc-Ala-Ala-Pro-Val-AMC) at a final concentration of 500 μM was added to each well and the plate was immediately placed in the victor2v fluorescent reader pre-warmed at 37° C. Fluorescence (λexc. 485 nm, λem. 535 nm) was recorded for 2 h at 37° C. Enzyme initial velocity (RFU/min) of all samples was calculated and converted in mU/mL hNE equivalent, using the linear regression equation obtained from the plot (RFU/min vs mU/mL of hNE dilution) of the human neutrophil elastase standard range. The assay was repeated using BAL supernatant from aliquot 2. The neutrophil elastase data reported is a mean of the neutrophil elastase activity from both aliquots.

The subject of a further data set is cynomolgus monkeys. Put plainly: GLP-compliant 28-day inhalation toxicity study in monkeys. Type of data set: in vivo, cynomolgus monkey. The procedure: In a GLP-compliant 28-day inhalation toxicity study in cynomolgus monkeys, conducted by Charles River Laboratories Preclinical Services, Tranent, Edinburgh, UK, the formulation described in Example 2 and dilutions thereof as well as the vehicle were administered using the Pari eFlow® XL 30 nebulizer device (Pari Pharma, Starnberg, Germany) with an oro-nasal inhalation mask for 60 min per day for 28 days, followed by a 2-week recovery period. […] In total five males and five females were used for each dose of the toxicity study including recovery. Parameters assessed included clinical signs, body weights, electrocardiology, ophthalmic examination, clinical pathology, toxicokinetic parameters in the plasma, gross necropsy findings, organ weights and histopathologic examinations.

The test system of data set [3] is neutrophil elastase. Put plainly: Previous intratracheal study in the LPS/fMLP rat model. Format: in vivo. The following applies: intratracheal doses of 0.03 to 3 mg/kg. An excerpt: The doses of fMLP and the time points were chosen based upon published data (see e.g. S. Yasui, A. Nagai, K. Aoshiba et al., Eur. Respir. J., 1995, 8, 1293; T. Yang, J. Zhang, K. Sun et al., Inflamm. Res. 2012, 61, 563; R. Corteling, D. Wyss, A. Trifilieff, BMC Pharmacology, 2002, 2, 1) and experience at Envigo CRS Limited. The dose selection of the drug was based on a previous intratracheal study at Envigo CRS Limited.

Consider `CCCCCCCC[C@@H]1NC(=O)[C@@H]2CCCN2C(=O)[C@H]2CCCN2C(=O)[C@H](Cc2ccc(O)cc2)NC(=O)[C@H](CCCCN)NC(=O)[C@H](CCC(N)=O)NC(=O)[C@@H]2CCCN2C(=O)[C@@H]2CCCN2C(=O)[C@H]([C@@H](C)CC)NC(=O)[C@H](CO)NC(=O)[C@H](C)NC(=O)[C@H]([C@@H](C)O)NC(=O)[C@H](CCC(=O)O)NC1=O` [cyclo(-OctG-Glu-Thr-Ala-Ser-Ile-Pro-Pro-Gln-Lys-Tyr-^DPro-Pro-)] (cyclo([Gly(octyl)]ETASIPPQKY[dP]P)), for which the “death, serious and other significant adverse events” value in data set [1] (CF patients, single inhaled doses 80, 160, 320 mg) was “No death, no serious adverse events (AE) and no other significant AE”. Besides, in data set [1] (human, in vivo), the “TEAEs rated as severe” value is “None”, the “causal relationship of TEAEs to active compound” value is given as “not related” and the “total number of AEs (all TEAEs)” value turned out to be 6. Moreover, the “NE activity in BAL fluid” value in the data set on neutrophil elastase [2] (0.3 mg/kg inhalation) was found to be 0.10 ± 0.01 mU/mL eq. Further, the “NE activity in BAL fluid” value in the data set on neutrophil elastase [2] (3 mg/kg inhalation) turned out to be 0.11 ± 0.01 mU/mL eq. In addition, the “NE activity in BAL fluid” value in the data set on neutrophil elastase [2] (30 mg/kg inhalation) stood at 0.07 ± 0.01 mU/mL eq. The “effect on neutrophil elastase activity in BAL fluid” value with neutrophil elastase [2] (0.3, 3 and 30 mg/kg by inhalation 3 h post LPS, 1 h prior to fMLP, BAL 6 h post LPS) is listed as “significantly inhibited”. Moreover, the “clinical signs between dosing and study termination” value in the data set on neutrophil elastase [2] (rat, inhalation 0.3-30 mg/kg) is listed as “No test item related clinical signs”. In addition, in the data set on cynomolgus monkeys (cynomolgus monkey, in vivo), the histopathologic findings entry is “increased numbers of alveolar macrophages, perivascular/peribronchiolar infiltrates, and granular eosinophilic deposits in the lung and lymphoid hyperplasia in the tracheobronchial lymph nodes”. Besides, the “body weight, clinical signs, ophthalmic, electrocardiographic findings, urinary parameters” value in the data set on cynomolgus monkeys (monkey, 11.2, 30.1 and 112 mg/kg/day) is “no body weight changes, clinical signs, ophthalmic or electrocardiographic findings or changes in urinary parameters attributable to drug treatment”. Further, in the data set on neutrophil elastase [3], the “efficacy in LPS/fMLP animal model” value is “efficacious”.
